13 molecules from US20240208992A1, “MACROCYCLES AS CFTR MODULATORS” (Idorsia Pharmaceuticals Ltd, priority 2021, published 2024) can be followed below.

Read-outs that look alike come from different tables or passages of the source.

The conditions of data set [1]: the molecule shown is the open-chain precursor; amide bond; 17-membered ring; 2 steps.
The conditions of data set [2]: amide bond.
For data set [3] the following is noted: amide bond, 17-membered ring.
Data set [4] concerns the target human F508del-CFTR (Homo sapiens, UniProt P13569, DEL508-508). In words: F508del-CFTR cell surface expression (corrector activity), DiscoveRx ß-galactosidase complementation chemiluminescence assay in recombinant U2OS cell line.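 As to all read-outs here: U2OS cells co-expressing ProLink-tagged F508del-CFTR and a membrane-anchored enzyme acceptor, where more surface CFTR restores β-galactosidase activity measured by chemiluminescence.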 The note with it: for EC50: EC50, F508del-CFTR cell surface expression; for Emax: U2OS.
The mark [5] stands for this setting: U2OS cells, 16h compound incubation, geomean of several measurements.
The mark [6] stands for this setting: in relation to the Emax of the corrector lumacaftor (=100%), U2OS cells, 16h compound incubation, arithmetic mean.

Sequence of human F508del-CFTR (P13569 with tags, fused parts or gaps DEL508-508): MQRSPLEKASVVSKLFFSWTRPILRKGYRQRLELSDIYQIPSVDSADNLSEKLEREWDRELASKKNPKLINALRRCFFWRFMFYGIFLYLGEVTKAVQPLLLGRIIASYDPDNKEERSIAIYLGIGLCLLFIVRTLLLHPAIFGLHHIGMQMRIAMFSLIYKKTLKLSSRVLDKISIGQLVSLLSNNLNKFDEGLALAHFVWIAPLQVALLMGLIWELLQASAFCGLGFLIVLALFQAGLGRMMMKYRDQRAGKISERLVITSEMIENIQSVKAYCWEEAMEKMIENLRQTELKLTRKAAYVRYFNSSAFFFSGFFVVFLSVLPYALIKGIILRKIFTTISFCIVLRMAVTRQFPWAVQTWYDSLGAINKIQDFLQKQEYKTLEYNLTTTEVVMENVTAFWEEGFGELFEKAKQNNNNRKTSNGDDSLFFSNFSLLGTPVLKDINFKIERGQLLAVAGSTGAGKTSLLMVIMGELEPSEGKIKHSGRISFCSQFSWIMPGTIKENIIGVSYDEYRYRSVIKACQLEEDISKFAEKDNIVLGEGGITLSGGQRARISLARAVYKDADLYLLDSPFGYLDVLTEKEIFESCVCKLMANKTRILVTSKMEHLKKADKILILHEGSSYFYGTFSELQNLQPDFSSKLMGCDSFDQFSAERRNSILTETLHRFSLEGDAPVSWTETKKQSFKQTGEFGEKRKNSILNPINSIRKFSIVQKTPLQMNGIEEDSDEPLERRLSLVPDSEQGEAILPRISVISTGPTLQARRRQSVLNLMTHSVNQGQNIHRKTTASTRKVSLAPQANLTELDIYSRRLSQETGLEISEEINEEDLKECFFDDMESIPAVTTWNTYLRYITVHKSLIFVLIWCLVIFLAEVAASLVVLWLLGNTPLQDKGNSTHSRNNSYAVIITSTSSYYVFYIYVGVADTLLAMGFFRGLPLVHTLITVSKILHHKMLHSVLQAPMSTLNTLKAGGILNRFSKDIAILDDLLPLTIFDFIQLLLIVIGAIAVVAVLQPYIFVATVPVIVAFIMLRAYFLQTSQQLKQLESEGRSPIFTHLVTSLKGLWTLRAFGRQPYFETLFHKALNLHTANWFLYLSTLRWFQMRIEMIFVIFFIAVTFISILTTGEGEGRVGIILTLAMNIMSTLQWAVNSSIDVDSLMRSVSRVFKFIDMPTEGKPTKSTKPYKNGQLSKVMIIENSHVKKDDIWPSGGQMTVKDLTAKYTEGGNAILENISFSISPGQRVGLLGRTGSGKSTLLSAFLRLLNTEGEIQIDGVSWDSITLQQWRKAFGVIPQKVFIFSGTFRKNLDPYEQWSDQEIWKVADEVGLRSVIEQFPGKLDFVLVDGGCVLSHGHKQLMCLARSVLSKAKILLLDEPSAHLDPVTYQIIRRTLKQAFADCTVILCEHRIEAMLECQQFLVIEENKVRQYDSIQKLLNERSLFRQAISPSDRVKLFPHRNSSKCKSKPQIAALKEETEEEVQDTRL

Regarding `CC(C)C[C@@H](C(=O)N1CCCC[C@@H]1C(=O)N[C@@H](COc1cnc2ccccc2c1C(=O)N[C@@H](CC(=O)OC(C)(C)C)C(=O)OCc1ccccc1)Cc1ccccc1)N(C)C(=O)OC(C)(C)C`, the ring closure, isolated yield in data set [1] is 58%.

`CC(C)C[C@H]1C(=O)N(CCC(C)(C)C)CC(=O)N[C@H](Cc2ccccc2)COc2cc3c(cc2C(=O)N[C@H](C(=O)O)CC(=O)N1C)OCO3` returned a ring closure, yield of all isomers in data set [2] (from CN[C@@H](CC(C)C)C(=O)N(CCC(C)(C)C)CC(=O)N[C@@H](COc1cc2c(cc1C(=O)N[C@@H](CC(=O)O)C(=O)O)OCO2)Cc1ccccc1, pentafluorophenyl diphenylphosphinate (FDPP), DMF/DCM, 67.5 mM, 5.0 h, 11 steps) of 26%.

For `CC(C)C[C@H]1C(=O)N(C[C@H]2COc3ccccc3C2)CC(=O)N[C@H](Cc2ccccc2)COc2ccc3ccccc3c2C(=O)N[C@H](C(=O)NCCc2ccc3c(c2)OCO3)CC(=O)N1C`, the ring closure, yield after HPLC in data set [3] (from CN[C@@H](CC(C)C)C(=O)N(CC(=O)N[C@@H](COc1ccc2ccccc2c1C(=O)N[C@@H](CC(=O)O)C(=O)NCCc1ccc2c(c1)OCO2)Cc1ccccc1)C[C@H]1COc2ccccc2C1, HATU/DIEA, DMF, 82.0 mM, 25.0 °C) was 97%.

`COc1cc2c(cc1OC)C(=O)N[C@H](C(=O)OCc1ccccc1)CC(=O)N(C)[C@@H](CC1CC1)C(=O)N(CCC1CCCCC1)CC(=O)N[C@H](Cc1ccccc1)CO2` displayed a ring closure, yield after HPLC in data set [3] (from CN[C@@H](CC1CC1)C(=O)N(CCC1CCCCC1)CC(=O)N[C@@H](COc1cc(OC)c(OC)cc1C(=O)N[C@@H](CC(=O)O)C(=O)OCc1ccccc1)Cc1ccccc1, FDPP, DCM, 50.0 °C) of 13%. The same molecule showed a ring closure, yield of all isomers in data set [2] (from CN[C@@H](CC1CC1)C(=O)N(CCC1CCCCC1)CC(=O)N[C@@H](COc1cc(OC)c(OC)cc1C(=O)N[C@@H](CC(=O)O)C(=O)OCc1ccccc1)Cc1ccccc1, FDPP, DCM, 50.0 °C, 12.0 h) of 13%.

Regarding `COc1nccc2c1C(=O)N[C@H](C(=O)NCCc1nc(C3CC3)no1)CC(=O)N(C)[C@@H](CC(C)C)C(=O)N(C)C(COCc1ccccc1)C(=O)N[C@H](Cc1ccccc1)CO2` (stereo partly shown), the ring closure, yield after HPLC in data set [3] (from CN[C@@H](CC(C)C)C(=O)N(C)C(COCc1ccccc1)C(=O)N[C@@H](COc1ccnc(OC)c1C(=O)N[C@@H](CC(=O)O)C(=O)NCCc1nc(C2CC2)no1)Cc1ccccc1, HATU/DIEA, DMF, 60.0 mM) stood at 82%.

In data set [3] (from CN[C@@H](CC(C)C)C(=O)N(C)[C@H](COCc1ccccc1)C(=O)N[C@@H](COc1ccc2ccccc2c1C(=O)N[C@@H](CC(=O)O)C(=O)NCCc1cccc(OC)c1)Cc1ccccc1, HATU/DIEA, DMF, 41.0 mM, 25.0 °C), `COc1cccc(CCNC(=O)[C@@H]2CC(=O)N(C)[C@@H](CC(C)C)C(=O)N(C)[C@H](COCc3ccccc3)C(=O)N[C@H](Cc3ccccc3)COc3ccc4ccccc4c3C(=O)N2)c1` [Example 713, (3S,7S,10R,13R)-13-benzyl-10-((benzyloxy)methyl)-7-isobutyl-N-(3-methoxyphenethyl)-6,9-dimethyl-1,5,8,11-tetraoxo-1,2,3,4,5,6,7,8,9,10,11,12,13,14-tetradecahydronaphtho[1,2-p][1]oxa[4,7,10,14]tetraazacycloheptadecine-3-carboxamide] returned a ring closure, yield after HPLC of 82%. In data set [4] (U2OS cells, 16h compound incubation, geomean values), the EC50 (as a rule, the concentration at which the effect is half-maximal) was 0.031 µM. Further, in data set [4] (in relation to Emax of corrector lumacaftor (=100%), arithmetic mean values), the Emax (usually the greatest response seen or fitted, relative to the assay's reference) amounted to 432%.

For the molecule `COc1cc(OCC[C@@H]2C(=O)N[C@H](Cc3ccccc3)COc3cc(C)nc(OC)c3C(=O)N[C@H](C(=O)NCCc3cc(OC)no3)CC(=O)N(C)[C@@H](CC(C)C)C(=O)N2C)ccn1` [Example 978, (3R,6R,9S,13S)-3-benzyl-9-isobutyl-16-methoxy-N-(2-(3-methoxyisoxazol-5-yl)ethyl)-6-(2-((2-methoxypyridin-4-yl)oxy)ethyl)-7,10,18-trimethyl-5,8,11,15-tetraoxo-2,3,4,5,6,7,8,9,10,11,12,13,14,15-tetradecahydropyrido[3,4-p][1]oxa[4,7,10,14]tetraazacycloheptadecine-13-carboxamide], in data set [4] (setting [5]), the EC50 amounted to 0.129 µM. Besides, in data set [4] (setting [6]), the Emax amounted to 457%.

For `COc1cc(CCNC(=O)[C@@H]2CC(=O)N(C)[C@@H](CC(C)C)C(=O)N(C)[C@H](CC3CC3)C(=O)N[C@H](Cc3ccccc3)COc3cc(C)nc(OC)c3C(=O)N2)on1` [Example 979, (3R,6R,9S,13S)-3-benzyl-6-(cyclopropylmethyl)-9-isobutyl-16-methoxy-N-(2-(3-methoxyisoxazol-5-yl)ethyl)-7,10,18-trimethyl-5,8,11,15-tetraoxo-2,3,4,5,6,7,8,9,10,11,12,13,14,15-tetradecahydropyrido[3,4-p][1]oxa[4,7,10,14]tetraazacycloheptadecine-13-carboxamide], in data set [4] (setting [5]), the concentration for a half-maximal effect (EC50) was found to be 0.209 µM. In addition, the maximal effect (Emax) in data set [4] (setting [6]) was found to be 394%.

On to `COc1cc(CCNC(=O)[C@@H]2CC(=O)N(C)[C@@H](CC(C)C)C(=O)N(C)[C@H](CC3CCC3)C(=O)N[C@H](Cc3ccccc3)COc3cc(C)nc(OC)c3C(=O)N2)on1` [Example 980, (3R,6R,9S,13S)-3-benzyl-6-(cyclobutylmethyl)-9-isobutyl-16-methoxy-N-(2-(3-methoxyisoxazol-5-yl)ethyl)-7,10,18-trimethyl-5,8,11,15-tetraoxo-2,3,4,5,6,7,8,9,10,11,12,13,14,15-tetradecahydropyrido[3,4-p][1]oxa[4,7,10,14]tetraazacycloheptadecine-13-carboxamide], for which, in data set [4] (setting [5]), the EC50 was 0.053 µM. The Emax in data set [4] (setting [6]) came to 435%.

`COc1cc(CCNC(=O)[C@@H]2CC(=O)N(C)[C@@H](CC(C)C)C(=O)N(C)[C@H](Cc3nc(C(F)(F)F)no3)C(=O)N[C@H](Cc3ccccc3)COc3c[n+]([O-])c4ccc(F)cc4c3C(=O)N2)on1` [Example 981, (3S,7S,10R,13R)-13-benzyl-20-fluoro-7-isobutyl-3-((2-(3-methoxyisoxazol-5-yl)ethyl)carbamoyl)-6,9-dimethyl-1,5,8,11-tetraoxo-10-((3-(trifluoromethyl)-1,2,4-oxadiazol-5-yl)methyl)-1,2,3,4,5,6,7,8,9,10,11,12,13,14-tetradecahydro-[1]oxa[4,7,10,14]tetraazacycloheptadecino[17,16-c]quinoline 17-oxide]: the EC50 in data set [4] (setting [5]) was determined as 0.133 µM. Also, the Emax in data set [4] (setting [6]) worked out at 448%.

In the case of `COc1cc(CCNC(=O)[C@@H]2CC(=O)N(C)[C@@H](CC(C)C)C(=O)N(C)[C@H](Cc3nc(C(F)(F)F)no3)C(=O)N[C@H](Cc3ccccc3)COc3cc(C)c4c(ccc[n+]4[O-])c3C(=O)N2)on1` [Example 982, (3S,7S,10R,13R)-13-benzyl-7-isobutyl-3-((2-(3-methoxyisoxazol-5-yl)ethyl)carbamoyl)-6,9,17-trimethyl-1,5,8,11-tetraoxo-10-((3-(trifluoromethyl)-1,2,4-oxadiazol-5-yl)methyl)-1,2,3,4,5,6,7,8,9,10,11,12,13,14-tetradecahydro-[1]oxa[4,7,10,14]tetraazacycloheptadecino[16,17-f]quinoline 18-oxide], the EC50 in data set [4] (setting [5]) was 0.236 µM. Moreover, in data set [4] (setting [6]), the Emax came to 530%.

As for `COc1noc(CCNC(=O)[C@@H]2CC(=O)N(C)[C@@H](CC(C)C)C(=O)N(C)[C@H](Cc3nc(C(F)(F)F)no3)C(=O)N[C@H](Cc3ccccc3)COc3ccc4c(cc(F)c[n+]4[O-])c3C(=O)N2)n1` [Example 983, (3S,7S,10R,13R)-13-benzyl-20-fluoro-7-isobutyl-3-((2-(3-methoxy-1,2,4-oxadiazol-5-yl)ethyl)carbamoyl)-6,9-dimethyl-1,5,8,11-tetraoxo-10-((3-(trifluoromethyl)-1,2,4-oxadiazol-5-yl)methyl)-1,2,3,4,5,6,7,8,9,10,11,12,13,14-tetradecahydro-[1]oxa[4,7,10,14]tetraazacycloheptadecino[16,17-f]quinoline 18-oxide], in data set [4] (setting [5]), the EC50 came to 0.27 µM. For the same molecule, in data set [4] (setting [6]), the Emax is 506%.

In turn, “(7R,13S,17S)-7-Benzyl-11-(3,3-dimethylbutyl)-13-isobutyl-14-methyl-9,12,15,19-tetraoxo-6,7,8,9,10,11,12,13,14,15,16,17,18,19-tetradecahydro-[1,3]dioxolo[4′,5′:4,5]benzo[1,2-p][1]oxa[4,7,10,14]tetraazacycloheptadecine-17-carboxylic acid” registered a ring closure, yield after HPLC in data set [3] (FDPP, DMF/DCM, resin, 67.5 mM, with chain assembly) of 26%.
